Results as given in patent US9102638B2, “Amidobenzothiazoles and process for the preparation thereof” (COUNCIL OF SCIENTIFIC & INDUSTRIAL RESEARCH, priority 2011, dated 2015).

Key:
Assay type in all cases: cell-based
[1] = tested on: UACC-62; assay: In vitro cytotoxicity, NCI screen: UACC-62 (Melanoma); conditions: Homo sapiens; UACC-62, Melanoma panel, NCI protocol; read-out: GI50 values (μM conc.)
Protocol: (§1) The in vitro anticancer activity studies for these amidobenzothiazoles were carried out at the National Cancer Institute, Maryland, USA.
(§2) The amidobenzothiazoles have been tested against sixty human tumor cell lines derived from nine cancer types (leukemia cancer cell line, non-small cell lung cancer cell line, colon cancer cell line, CNS cancer cell line, melanoma cancer cell line, ovarian cancer cell line, renal cancer cell line, prostate cancer cell line and breast cancer cell lines). For these compounds results are expressed in GI50 values of that particular cancer cell at micro molar (μM) concentration as per NCI protocol.

[2] = tested on: T-47D; assay: In vitro cytotoxicity, NCI screen: T-47D (Breast); conditions: Homo sapiens, T47D, Breast panel, NCI protocol, read-out: GI50 values (μM conc.)
Protocol: as §1, §2

[3] = tested on: SK-MEL-5; assay: In vitro cytotoxicity, NCI screen: SK-MEL-5 (Melanoma); conditions: Homo sapiens; SK-MEL-5, Melanoma panel, NCI protocol; read-out: GI50 values (μM conc.)
Protocol: as §1, §2

[4] = tested on: HT29; assay: In vitro cytotoxicity, NCI screen: HT29 (Colon); conditions: Homo sapiens, HT-29; HT29, Colon panel, NCI protocol; read-out: GI50 values (μM conc.)
Protocol: as §1, §2

[5] = tested on: HCT-15; assay: In vitro cytotoxicity, NCI screen: HCT-15 (Colon); conditions: Homo sapiens; HCT-15, Colon panel, NCI protocol; read-out: GI50 values (μM conc.)
Protocol: as §1, §2

[6] = tested on: MALME-3M; assay: In vitro cytotoxicity, NCI screen: MALME-3M (Melanoma); conditions: Homo sapiens, Melanoma panel, NCI protocol, read-out: GI50 values (μM conc.)
Protocol: as §1, §2

[7] = tested on: U251; assay: In vitro cytotoxicity, NCI screen: U251 (CNS); conditions: Homo sapiens, U-251; U251, CNS panel, NCI protocol; read-out: GI50 values (μM conc.)
Protocol: as §1, §2

[8] = tested on: HCC-2998; assay: In vitro cytotoxicity, NCI screen: HCC-2998 (Colon); conditions: Homo sapiens; HCC-2998, Colon panel, NCI protocol; read-out: GI50 values (μM conc.)
Protocol: as §1, §2

[9] = tested on: SF-268; assay: In vitro cytotoxicity, NCI screen: SF-268 (CNS); conditions: Homo sapiens, read-out: GI50 values (μM conc.)
Protocol: as §1, §2

[10] = tested on: OVCAR-3; assay: In vitro cytotoxicity, NCI screen: OVCAR-3 (Ovarian); conditions: Homo sapiens; OVCAR-3, Ovarian panel, NCI protocol; read-out: GI50 values (μM conc.)
Protocol: as §1, §2

[11] = tested on: CCRF-CEM; assay: In vitro cytotoxicity, NCI sixty cell line screen: CCRF-CEM (Leukemia); conditions: Homo sapiens, Leukemia panel, NCI protocol, read-out: GI50 values (μM conc.)
Protocol: as §1, §2

[12] = tested on: SF-295; assay: In vitro cytotoxicity, NCI screen: SF-295 (CNS); conditions: Homo sapiens; SF-295, CNS panel, NCI protocol; read-out: GI50 values (μM conc.)
Protocol: as §1, §2

[13] = tested on: IGROV1; assay: In vitro cytotoxicity, NCI screen: IGROV1 (Ovarian); conditions: Homo sapiens, IGROV-1; IGROV1, Ovarian panel, NCI protocol; read-out: GI50 values (μM conc.)
Protocol: as §1, §2

[14] = tested on: NCI/ADR-RES; assay: In vitro cytotoxicity, NCI screen: NCI/ADR-RES (Ovarian); conditions: Homo sapiens, Ovarian panel, NCI protocol, read-out: GI50 values (μM conc.)
Protocol: as §1, §2

[15] = tested on: ACHN; assay: In vitro cytotoxicity, NCI screen: ACHN (Renal); conditions: Homo sapiens, Renal panel, NCI protocol, read-out: GI50 values (μM conc.)
Protocol: as §1, §2

[16] = tested on: KM12; assay: In vitro cytotoxicity, NCI screen: KM12 (Colon); conditions: Homo sapiens; KM12, Colon panel, NCI protocol; read-out: GI50 values (μM conc.)
Protocol: as §1, §2

[17] = tested on: NCI-H23; assay: In vitro cytotoxicity, NCI screen: NCI-H23 (Non-small cell lung); conditions: Homo sapiens; NCI-H23, Non-small cell lung panel, NCI protocol; read-out: GI50 values (μM conc.)
Protocol: as §1, §2

[18] = tested on: NCI-H226; assay: In vitro cytotoxicity, NCI screen: NCI-H226 (Non-small cell lung); conditions: Homo sapiens; NCI-H226, Non-small cell lung panel, NCI protocol; read-out: GI50 values (μM conc.)
Protocol: as §1, §2

[19] = tested on: OVCAR-8; assay: In vitro cytotoxicity, NCI screen: OVCAR-8 (Ovarian); conditions: Homo sapiens; OVCAR-8, Ovarian panel, NCI protocol; read-out: GI50 values (μM conc.)
Protocol: as §1, §2

[20] = tested on: EKVX; assay: In vitro cytotoxicity, NCI screen: EKVX (Non-small cell lung); conditions: Homo sapiens, Non-small cell lung panel, NCI protocol, read-out: GI50 values (μM conc.)
Protocol: as §1, §2

[21] = tested on: SNB-75; assay: In vitro cytotoxicity, NCI screen: SNB-75 (CNS); conditions: Homo sapiens; SNB-75, CNS panel, NCI protocol; read-out: GI50 values (μM conc.)
Protocol: as §1, §2

[22] = tested on: MDA-MB-468; assay: In vitro cytotoxicity, NCI screen: MDA-MB-468 (Breast); conditions: Homo sapiens, read-out: GI50 values (μM conc.)
Protocol: as §1, §2

[23] = tested on: leukemia cancer cell lines; assay: In vitro activity against leukemia cancer cell lines (panel range); conditions: Homo sapiens, read-out: GI50 values, range over the listed compounds and the panel
Protocol: as §1, §2

[24] = tested on: COLO-205; assay: In vitro cytotoxicity, NCI screen: COLO-205 (Colon); conditions: Homo sapiens; COLO-205, Colon panel, NCI protocol; read-out: GI50 values (μM conc.)
Protocol: as §1, §2

[25] = tested on: OVCAR-4; assay: In vitro cytotoxicity, NCI screen: OVCAR-4 (Ovarian); conditions: Homo sapiens; OVCAR-4, Ovarian panel, NCI protocol; read-out: GI50 values (μM conc.)
Protocol: as §1, §2

[26] = tested on: K-562; assay: In vitro cytotoxicity, NCI screen: K-562 (Leukemia); conditions: Homo sapiens, K562; read-out: GI50 values (μM conc.)
Protocol: as §1, §2

[27] = tested on: SR; assay: In vitro cytotoxicity, NCI screen: SR (Leukemia); conditions: Homo sapiens, Leukemia panel, NCI protocol, read-out: GI50 values (μM conc.)
Protocol: as §1, §2

[28] = tested on: BT-549; assay: In vitro cytotoxicity, NCI screen: BT-549 (Breast); conditions: Homo sapiens, read-out: GI50 values (μM conc.)
Protocol: as §1, §2

[29] = tested on: SK-OV-3; assay: In vitro cytotoxicity, NCI screen: SK-OV-3 (Ovarian); conditions: Homo sapiens; SK-OV-3, Ovarian panel, NCI protocol; read-out: GI50 values (μM conc.)
Protocol: as §1, §2

[30] = tested on: HOP-62; assay: In vitro cytotoxicity, NCI screen: HOP-62 (Non-small cell lung); conditions: Homo sapiens; HOP-62, Non-small cell lung panel, NCI protocol; read-out: GI50 values (μM conc.)
Protocol: as §1, §2

[31] = tested on: OVCAR-5; assay: In vitro cytotoxicity, NCI screen: OVCAR-5 (Ovarian); conditions: Homo sapiens; OVCAR-5, Ovarian panel, NCI protocol; read-out: GI50 values (μM conc.)
Protocol: as §1, §2

[32] = tested on: SNB-19; assay: In vitro cytotoxicity, NCI screen: SNB-19 (CNS); conditions: Homo sapiens; SNB-19, CNS panel, NCI protocol; read-out: GI50 values (μM conc.)
Protocol: as §1, §2

| Structure (SMILES) | GI50 [2] [µM] | GI50 [5] [µM] | GI50 [7] [µM] | GI50 [8] [µM] | GI50 [9] [µM] | GI50 [10] [µM] | GI50 [12] [µM] | GI50 [13] [µM] | GI50 [14] [µM] | GI50 [15] [µM] | GI50 [17] [µM] | GI50 [18] [µM] | GI50 [19] [µM] | GI50 [20] [µM] | GI50 [21] [µM] | GI50 [22] [µM] | GI50 [23] [µM] | GI50 [24] [µM] | GI50 [25] [µM] | GI50 [28] [µM] | also measured |
| --- | --- | --- | --- | --- | --- | --- | --- | --- | --- | --- | --- | --- | --- | --- | --- | --- | --- | --- | --- | --- | --- |
| COc1ccc(/C=C\c2cc(OC)c(OC)c(OC)c2)cc1OCC(=O)Nc1nc2ccccc2s1 [Compound 8a, N1-(1,3-benzothiazol-2-yl)-2-{2-methoxy-5-[(Z)-2-(3,4,5-trimethoxyphenyl)-1-ethenyl]phenoxy}acetamide] | 1 | 0.048 | 0.048 | 0.37 | 0.18 | 0.043 | 0.22 | 0.21 | 0.033 | 0.093 | 0.11 | 0.27 | 0.25 | 0.038 | 0.046 | 0.1 | 0.037 to 29.9 | 2.83 | 0.37 | 0.41 | GI50 [1]: 0.063 µM; GI50 [3]: 0.036 µM; GI50 [4]: 3.16 µM; GI50 [6]: 1.99 µM; GI50 [11]: 0.078 µM; GI50 [16]: 0.058 µM; GI50 [26]: 0.042 µM; GI50 [27]: 0.037 µM; GI50 [29]: 0.34 µM |
| COc1ccc(/C=C\c2cc(OC)c(OC)c(OC)c2)cc1OCC(=O)Nc1nc2ccc(F)cc2s1 [Compound 8e, N1-(6-fluoro-1,3-benzothiazol-2-yl)-2-{2-methoxy-5-[(Z)-2-(3,4,5-trimethoxyphenyl)-1-ethenyl]phenoxy}acetamide] | 3.39 | 8.19 | 4.33 | > 100 | 7.23 | 9.99 | 4.29 | 4.17 | 2.55 | 3.33 | 4.26 | 5.6 | 7.15 | 5.72 | 4.39 | 3.68 | 0.037 to 29.9 | 7.78 | 7.3 | 16.7 | GI50 [1]: 4.05 µM; GI50 [3]: 1.76 µM; GI50 [4]: 9.63 µM; GI50 [6]: 5.22 µM; GI50 [11]: 3.7 µM; GI50 [30]: 5.7 µM; GI50 [16]: 4.78 µM; GI50 [31]: > 100 µM; GI50 [32]: > 100 µM; GI50 [26]: 3.62 µM; GI50 [27]: 2.19 µM; GI50 [29]: 8 µM |
| COc1ccc2nc(NC(=O)COc3cc(/C=C\c4cc(OC)c(OC)c(OC)c4)ccc3OC)sc2c1 [Compound 8g, N1-(6-methoxy-1,3-benzothiazol-2-yl)-2-{2-methoxy-5-[(Z)-2-(3,4,5-trimethoxyphenyl)-1-ethenyl]phenoxy}acetamide] | 4.03 | 2.89 | 4 | 7.34 | 4.31 | 2.17 | 1.84 | 7 | 2.3 | 7.77 | 3.91 | 4.51 | 5.28 | 5.11 | 1.91 | 2.29 | 0.037 to 29.9 | 3.89 | 5.31 | 21.2 | GI50 [1]: 5.93 µM; GI50 [3]: 2.68 µM; GI50 [4]: 3.34 µM; GI50 [6]: > 100 µM; GI50 [11]: 3.87 µM; GI50 [30]: 23 µM; GI50 [16]: 3.12 µM; GI50 [31]: 5.89 µM; GI50 [32]: 6.3 µM; GI50 [26]: 3.6 µM; GI50 [27]: 3.69 µM; GI50 [29]: 4.69 µM |
| COc1ccc(/C=C\c2cc(OC)c(OC)c(OC)c2)cc1OCC(=O)Nc1nc2ccc(OC(F)(F)F)cc2s1 [Compound 8j, N1-(6-(trifluoromethoxy)-1,3-benzothiazol-2-yl)-2-{2-methoxy-5-[(Z)-2-(3,4,5-trimethoxyphenyl)-1-ethenyl]phenoxy}acetamide] | 3.95 | 3.23 | 3.37 | 17.1 | 6.01 | 3.37 | 3.7 | 5.64 | 2.7 | 8.31 | 4.39 | 4.3 | 5 | 7.89 | 1.56 | 2.3 | 0.037 to 29.9 | 43.3 | 5.34 | 10.5 | GI50 [1]: 5.11 µM; GI50 [3]: 3.26 µM; GI50 [4]: > 100 µM; GI50 [11]: 4.12 µM; GI50 [30]: 7.09 µM; GI50 [16]: 4.48 µM; GI50 [31]: 3.12 µM; GI50 [32]: 7.08 µM; GI50 [26]: 3.43 µM; GI50 [27]: 3.55 µM; GI50 [29]: 8.42 µM |
| COc1ccc(C2CC(c3cc(OC)c(OC)c(OC)c3)=NN2C(C)=O)cc1OCC(=O)Nc1nc2ccc(C(F)(F)F)cc2s1 (centres unmarked) [Compound 10i, N1-(6-(trifluoromethyl)-1,3-benzothiazol-2-yl)-2-{5-[1-acetyl-3-(3,4,5-trimethoxyphenyl)-4,5-dihydro-1H-5-pyrazolyl]-2-methoxyphenoxy}acetamide] | 2.75 | 9.26 | 3.08 | > 100 | 3.84 | 1.84 | 3.06 | 5.3 | 3.13 | 2.48 | 3.76 | 2.22 | 3.36 | 4.1 | 1.55 | 6.12 | 0.037 to 29.9 | 3.94 | 2.9 | 3.55 | GI50 [6]: 6.44 µM; GI50 [30]: 2.2 µM; GI50 [31]: 28.2 µM; GI50 [32]: 11 µM; GI50 [29]: 5.75 µM |
